According to publication PMC6337261, “Short Peptides with Uncleavable Peptide Bond Mimetics as Photoactivatable Caspase-3 Inhibitors” (Molecules, 2019):

Experiments:
[1] = LC-MS analysis of probes before and after UV irradiation; type: physicochemical; settings: irradiation at 365 nm, gradient 10% to 95% acetonitrile with 0.1% formic acid
Experimental: (§1) Compounds were irradiated with UV light of 365 nm for 30 min and after removal of the light source added to caspase-3. Residual caspase activity was measured by using a fluorescent caspase ABP as in our previous experiments above.
Although this points towards a cyclization rather than reaction with a water molecule, it is not clear whether it leads to a potent caspase inhibitor. […] Therefore, cyclization seemed improbable, as this would most likely lead to a shift in retention time. We hypothesized that irradiation could potentially lead to oxidation of a very small amount of the ψ(CH2NH) moiety with benzophenone as a photosensitizer, resulting in minute quantities of aldehydes that were not detected on LC-MS, but were sufficient for caspase-3 inhibition. Oxidation of secondary amines under influence of benzophenone has been reported before. […] Note that triazoles cannot undergo this transformation, further explaining their inactivity. The oxidation hypothesis was supported by an experiment in which ψ(CH2NH) peptides 14 and 15, not containing a benzophenone, were irradiated in the presence of 1 eq of spiked-in benzophenone (Figure 3G–I).
All materials were purchased from Sigma Aldrich GmbH (GmbH, Darmstadt, Germany), Carl Roth GmbH + Co. KG (Karlsruhe, Germany), Thermo Fischer Scientific Inc. (Dreieich, Germany), Rapp Polymere GmbH (Tübingen, Germany), Applichem GmbH (Darmstadt, Germany), VWR International GmbH (Darmstadt, Germany), Merck KGaA (Darmstadt, Germany), CreoSalus Inc. (Louisville, KY, USA), and Iris Biotech GmbH (Marktredwitz, Germany) and were used as received, unless otherwise noted. TLC was performed on pre-coated ALUGRAM SIL G plates with detection by a handheld UV lamp (254 nm) and subsequent staining with potassium permanganate, p-anisaldehyde, ninhydrin or cerium ammonium molybdate. LC-MS analysis was performed on a Thermo LCQ Fleet HPLC-MS/MS system using a gradient of 10% to 95% acetonitrile containing 0.1% formic acid. NMR spectra were recorded on a Bruker Avance DRX 400 spectrometer with tetramethylsilane as internal standard. High resolution ESI-FTMS was performed on a Thermo Scientific LTQ Orbitrap Velos Pro mass spectrometer.

caspase-3 [2] = experiment: Fluorogenic substrate (Ac-DEVD-AMC) cleavage assay; type: biochemical; settings: 10 μM compound, 2 nM caspase-3, 50 μM Ac-DEVD-AMC, HEPES pH 7.4 with 10 mM DTT, n = 2
Experimental: To check whether our probes function as inhibitors, competitive ABPP [28] was performed. Recombinant caspase-3 was incubated with probes 9a–10c, 11a and 12a with or without irradiation at 365 nm, followed by labeling of residually active caspase-3 with the fluorescent, caspase-directed activity-based probe (ABP) SV149, a tetramethylrhodamine derivative of KMB-01 [29]. Caspase activity itself was not affected by UV irradiation, as shown by bands of equal intensity with and without UV light (Figure 2A). […] To confirm inhibition, we also performed substrate cleavage assays using the fluorogenic aminomethyl coumarin substrate Ac-DEVD-AMC. […] Inhibition of active caspases could also be achieved in an apoptotic cell lysate (Figure 2D).
Purified caspase-3 (2 nM) was pre-activated by incubating in caspase reaction buffer (20 mm HEPES pH 7.4, 100 mM NaCl, 1 mM EDTA, 10% sucrose (w/v), 0.1% CHAPS (w/v), 10 mM DTT) for 15 min at 37 °C. Inhibitors 9a, 10a, and DMSO (control) were incubated with the caspase-3 at 10 μM final concentration. One set was irradiated with a handheld UV lamp at 365 nm for 30 min at room temperature whereas the control set was not irradiated. After 30 min, 99 μL of the sample was added to 1 μL of Ac-DEVD-AMC fluorogenic substrate (5 mM in dmso; 50 μM final concentration) in a black 96 well plate. The fluorescence intensity was read using an iD3 SpectraMax platereader (Molecular Devices; excitation wavelength: 340 nm; emission wavelength: 475 nm). The experiment was performed in duplicate. Activity was determined as the slope from the linear part of the progress curve by using GraphPad Prism.
Figure 2 Inhibition of caspase-3. (A) Competitive activity-based protein profiling (ABPP) experiments using ψ(CH2NH) or triazolo peptide derivatives 9–12 with or without irradiation. Compounds 9a–12a were used at 10 μM final concentration, 9b, 9c, 10b and 10c at 100 μM. Inh = caspase inhibitor biotin-DEVD-AOMK, used at 100 nM concentration. (B) Representative progress curves of fluorescence produced by Ac-DEVD-AMC (50 μM) cleavage by caspase-3, irradiated with or without 10 μM of the indicated compounds. (C) Bar graph of residual caspase-3 activity of replicate experiments (n = 2) of those in (B). (D) Inhibition of executioner’s caspase-3 and -7 in lysates of HEK293 cells, treated with cytochrome c/dATP to induce apoptosis.

caspase-3 [3] = experiment: Competitive ABPP with UV pre-activation of the probes; type: biochemical; settings: compound irradiated at 365 nm for 30 min, light source removed, then added to caspase-3 for 30 min; fluorescent ABP read-out
Experimental: as §1
Caspase-3, produced in E. coli and purified as described before, was reacted in PBS with 1 mM DTT. Samples were combined with the indicated probe and irradiated with a handheld UV lamp at 365 nm for 30 min at room temperature. For competition experiments with ‘pre-activation,’ the indicated probes were irradiated for 30 min prior to addition to caspase-3, and incubated for an additional 30 min. Next, ABP 13 was added (final concentration 1 μM) to label residual caspase-3 activity. The samples were incubated for 30 min at room temperature, after which 1/3rd volume of 4× Laemmli buffer was added. Samples were heated at 95 °C for 2 min and resolved by 15% SDS-PAGE. Gels were scanned using a Typhoon Trio+ fluorescent scanner with excitation at 532 nm and an emission filter of 580 nm. Gel images were processed with ImageJ (background subtraction with rolling ball radius of 50 pixels and automated contrast adjustment).
Figure 3 Non-covalent inhibition of caspase-3 by compounds 9 and 10. (A) Fluorescent labeling of caspase-3 by ψ(CH2NH) peptides 9–10 and triazolo peptides 11–12. […] (B) Deconvoluted ESI-MS of caspase-3. (C) Deconvoluted ESI-MS of caspase-3 after incubation with covalent activity-based probe (ABP) 13. Note that the active site, located on the large subunit, is modified. (D) Deconvoluted ESI-MS of caspase-3 after irradiation in the presence of benzophenone ψ(CH2NH) 10a, not resulting in covalent modification. […] (F) Structures of ψ(CH2NH) peptides 14 and 15 without photocrosslinker. (G) UV irradiation of ψ(CH2NH) peptides 14 and 15 in the presence of benzophenone leads to inhibition of caspase-3, as monitored by competitive ABPP. […] Ac-DEVD-aldehyde (100 nM) was used as a control compound, whereas 9a and 10a (10 μM) were irradiated for 10 min and reacted with sodium bisulfite for an additional 20 min before 30 min incubation with caspase-3 and read-out with a fluorescent caspase ABP.

Hexynoyl-Asp-Glu-Val-Aspψ(CH2NH)-Ala-Bpa-NH2 [10a]
Change of probe upon UV irradiation (LC-MS before and after) [1]: did not show obvious changes
Inhibition of Ac-DEVD-AMC cleavage by caspase-3 (caspase-3 [2]; irradiated at 365 nm for 30 min at room temperature): complete blockage of substrate processing
Inhibition of Ac-DEVD-AMC cleavage by caspase-3 (caspase-3 [2]; not irradiated): little to no inhibition
Inhibition of caspase-3 after UV pre-activation of compound (caspase-3 [3]): still inhibited
